According to article PMC10584170, “Machine learning-based phenotypic imaging to characterise the targetable biology of Plasmodium falciparum male gametocytes for the development of transmission-blocking antimalarials” (PLOS Pathogens, 2023):

Assays:
[1] = test system: P. falciparum female gametocytes; assay: P. falciparum Dual Gamete Formation Assay (PfDGFA), female readout (Pfs25-positive female gametes); assay type: cell-based, Plasmodium falciparum NF54; details: for Average inhibition female (%): average of replicates; for % inhibition female (individual replicates) R1: replicate R1; for % inhibition female (individual replicates) R3: replicate R3; for % inhibition female (individual replicates) R4: replicate R4
Procedure, shortened: (§1)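 Mature NF54 gametocytes (day 14) were incubated with compound for 24 h at 37°C under 1% O2/3% CO2, then triggered with xanthurenic acid ookinete medium plus Cy3-anti-Pfs25. Exflagellation was imaged by brightfield; after a further 24 h at 28°C, Pfs25-positive female gametes were imaged by fluorescence and counted by automated image analysis.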

[2] = test system: P. falciparum male gametocytes; assay: P. falciparum Dual Gamete Formation Assay (PfDGFA), male readout (exflagellation); assay type: cell-based, Plasmodium falciparum NF54; details: for Average inhibition male (%): average of replicates; for % inhibition male (individual replicates) R1: replicate R1; for % inhibition male (individual replicates) R3: replicate R3; for % inhibition male (individual replicates) R4: replicate R4; for Activity: hit = >50% inhibition in male or female readout in at least 3 replicates, 0 = no class assigned
Procedure, shortened: as §1

[3] = PfDGFA at 2µM, 24h preincubation with gametocytes
[4] = number of replicates with >50% inhibition in the female readout, 2µM
[5] = number of replicates with >50% inhibition in the male readout, 2µM
[6] = 2µM, 24h preincubation with gametocytes prior to induction of gametogenesis
[7] = 2µM, 24h preincubation, number of replicates with >50% inhibition in the female readout
[8] = 2µM, 24h preincubation, number of replicates with >50% inhibition in the male readout
[9] = PfDGFA at 2µM, 24h preincubation with gametocytes prior to induction of gametogenesis
[10] = PfDGFA at 2µM, 24h preincubation
[11] = 2µM, 24h preincubation, hits selected on >50% inhibition in the female readout across replicates
[12] = 2µM, 24h preincubation, hits selected on >50% inhibition in the male readout across replicates

Row | Structure (SMILES) | Average inhibition female (%) [1, 6] [%] | % inhibition female (individual replicates) R1 [1, 6] [%] | % inhibition female (individual replicates) R3 [1, 6] [%] | % inhibition female (individual replicates) R4 [1, 6] [%] | Average inhibition male (%) [2, 6] [%] | % inhibition male (individual replicates) R1 [2, 6] [%] | % inhibition male (individual replicates) R3 [2, 6] [%] | % inhibition male (individual replicates) R4 [2, 6] [%] | % inhibition female (individual replicates) R1 [1, 9] [%] | % inhibition female (individual replicates) R3 [1, 9] [%] | % inhibition female (individual replicates) R4 [1, 9] [%] | Average inhibition female (%) [1, 10] [%] | % inhibition male (individual replicates) R1 [2, 9] [%] | % inhibition male (individual replicates) R4 [2, 9] [%] | Average inhibition male (%) [2, 10] [%] | further results
1 | CCCOc1c(CCNCCCCNCCc2ccc3ccccc3c2OCCC)ccc2ccccc12.CS(=O)(=O)O [TCMDC-137950] |  |  |  |  |  |  |  |  |  |  |  |  |  |  |  | Average inhibition female (%) [1, 3]: 65.5%; % inhibition female (individual replicates) R1 [1, 3]: 72.1%; % inhibition female (individual replicates) R3 [1, 3]: 62.6%; % inhibition female (individual replicates) R4 [1, 3]: 79.5%; HitlevelF [1, 4]: 3; Average inhibition male (%) [2, 3]: 74.1%; % inhibition male (individual replicates) R1 [2, 3]: 87.0%; % inhibition male (individual replicates) R3 [2, 3]: 74.0%; % inhibition male (individual replicates) R4 [2, 3]: 95.7%; HitlevelM [2, 5]: 3
2 | COc1cc2ccccc2cc1CNCCCCCCNCc1cc2ccccc2cc1OC.CS(=O)(=O)O [TCMDC-137955] | 14.7 | 13.5 | -9.9 | 5.4 | 53.1 | 58.5 | -7.9 | 78.9 |  |  |  |  |  |  |  | HitlevelF [1, 7]: 0; HitlevelM [2, 8]: 3
3 | Cc1cc2c3c(N)nc(N)nc3ccc2n1C [TCMDC-137957] | 31.9 | 39.3 | 32.6 | 34.2 | 2.4 | -0.85 | -3.6 | 3.4 |  |  |  |  |  |  |  | HitlevelF [1, 7]: 0; HitlevelM [2, 8]: 0
4 | Nc1nc(N)c2c(ccc3c2ccn3CCCCO)n1 [TCMDC-137959] |  |  |  |  |  |  |  |  | -0.01 | -3.7 | 2.0 | -0.9 | 21.0 | -1.8 | 15.1 | 
5 | Nc1nc(N)c2c(ccc3nn(C4CCCC4)cc32)n1 [TCMDC-137960] | 4.4 | 5.0 | 5.0 | 9.1 | -1.6 | 13.2 |  | -27.5 |  |  |  |  |  |  |  | HitlevelF [1, 11]: 0; HitlevelM [2, 12]: 0; Activity [2, 10]: 0
6 | CCCCCCOc1ccc2ccccc2c1CNCCCCCCNCc1c(OCCCCCC)ccc2ccccc12.CS(=O)(=O)O [TCMDC-137963] | 30.9 | 24.3 | 23.7 | 29.4 | 26.5 | 35.9 | 2.2 | 25.6 |  |  |  |  |  |  |  | HitlevelF [1, 7]: 0; HitlevelM [2, 8]: 0
7 | CC(C)COc1ccc2ccccc2c1CNCCCCCCNCc1c(OCC(C)C)ccc2ccccc12.CS(=O)(=O)O [TCMDC-137972] | 43.0 | 37.9 | 36.7 | 62.6 | 47.1 | 41.0 | 61.0 | 84.0 |  |  |  |  |  |  |  | HitlevelF [1, 7]: 1; HitlevelM [2, 8]: 2
8 | CN(C)S(=O)(=O)n1ccc2c3c(N)nc(N)nc3ccc21 [TCMDC-137973] | 12.1 | 13.5 | 33.5 | 1.8 | -3.2 | 31.1 | -3.2 | -51.1 |  |  |  |  |  |  |  | HitlevelF [1, 11]: 0; HitlevelM [2, 12]: 0; Activity [2, 10]: 0
9 | CCCCOc1c(CNCCCCCCNCc2ccc3ccccc3c2OCCCC)ccc2ccccc12.CS(=O)(=O)O [TCMDC-137975] |  |  |  |  |  |  |  |  |  |  |  |  |  |  |  | Average inhibition female (%) [1, 3]: 39.1%; % inhibition female (individual replicates) R1 [1, 3]: 52.1%; % inhibition female (individual replicates) R3 [1, 3]: 14.4%; % inhibition female (individual replicates) R4 [1, 3]: 37.6%; HitlevelF [1, 4]: 2; Average inhibition male (%) [2, 3]: 78.3%; % inhibition male (individual replicates) R1 [2, 3]: 78.0%; % inhibition male (individual replicates) R4 [2, 3]: 67.8%; HitlevelM [2, 5]: 3
10 | CC(C)(C)c1ccc(-c2cc3c(ccc4nc(N)nc(N)c43)[nH]2)cc1 [TCMDC-137977] | 6.0 | 2.7 | -16.6 | 37.6 | 2.0 | 6.1 | 0.4 | -0.46 |  |  |  |  |  |  |  | HitlevelF [1, 11]: 0; HitlevelM [2, 12]: 0; Activity [2, 10]: 0
11 | Nc1nc(N)c2c(ccc3c2ccn3Cc2ccccn2)n1 [TCMDC-137980] |  |  |  |  |  |  |  |  | 1.3 | -9.6 | 4.7 | -4.0 | -11.9 | -51.4 | -22.7 | 
12 | C=CCn1ccc2c3c(N)nc(N)nc3ccc21 [TCMDC-137995] |  |  |  |  |  |  |  |  | -8.1 | -14.1 | 22.9 | -3.2 | 38.6 | 16.7 | 27.9 | % inhibition male (individual replicates) R3 [2, 9]: 29.0%
13 | CCCN(CCC)CCCN(CCCN(CCC)CCC)c1cc(C)nc(Nc2ccc3cc(Br)ccc3c2)n1.Cl [TCMDC-138006] |  |  |  |  |  |  |  |  |  |  |  |  |  |  |  | Average inhibition female (%) [1, 3]: 38.7%; % inhibition female (individual replicates) R1 [1, 3]: 42.6%; % inhibition female (individual replicates) R3 [1, 3]: 25.8%; % inhibition female (individual replicates) R4 [1, 3]: 40.6%; HitlevelF [1, 4]: 0; Average inhibition male (%) [2, 3]: 65.9%; % inhibition male (individual replicates) R1 [2, 3]: 64.4%; % inhibition male (individual replicates) R3 [2, 3]: 70.2%; % inhibition male (individual replicates) R4 [2, 3]: 75.1%; HitlevelM [2, 5]: 4
14 | Cc1ccc2ccncc2c1N [TCMDC-138025] |  |  |  |  |  |  |  |  | -5.1 | -43.7 | -6.6 | -17.6 | 6.2 | 37.3 | 29.9 | % inhibition male (individual replicates) R3 [2, 9]: 45.8%
15 | Cc1c(Cc2ccc(C(C)C)cc2)cnc2nc(N)nc(N)c12 [TCMDC-138044] |  |  |  |  |  |  |  |  | 2.8 | -15.2 | -3.9 | -2.8 | 10.0 | -19.8 | -5.8 | % inhibition male (individual replicates) R3 [2, 9]: -13.9%
